Laboratory results from PMC8312697, “Mechanistic Investigations Support Liver Safety of Ubrogepant” (Toxicological Sciences, 2020).
pIC50: −log10 of the molar value. In brackets after ≈: the same amount, converted by molar mass. Where two headings read alike, the source gives them in different places.

Key:
monkeys = assay: Conventional nonclinical toxicology study, NHP; conditions: 9M NHP
Experimental: Conventional animal toxicology studies in rats and monkeys were performed by Merck & Co, Inc (West Point, Pennsylvania).

[1] = test system: Nrf2 electrophilic stress and Nrf1 proteasomal stress pathways; assay: In vivo rat liver gene expression bioactivation liver response assay (BA-LRA); conditions: for maximum liver safe daily dose predicted from BA-LRA: human daily dose projected from rat BA-LRA score; for upregulation of pathways associated with electrophilic and proteasomal stress: rat liver gene expression studies; for BA-LRA score: also presented in Monroe et al., 2018
Description: A prediction of a clinical daily dose burden associated with reactive metabolite-mediated DILI potential was derived from a focused and integrated quantitative rat liver molecular gene expression signature optimized predominantly for Nrf2 electrophilic stress and Nrf1 proteasomal stress pathways to describe a bioactivation liver response assay (BA-LRA) result. […] The clinical dose is identified that projects DILI risk to exceed the optimized threshold calculation for each BA-LRA result.

CYP3A4 = molecular target: T1, CYP3A4 (Homo sapiens, UniProt P08684); assay: HEK293/CYP3A4 assay of Nrf2 stabilization and CYP3A4 degradation; format: cell-based; conditions: HEK293 cells with inducible CYP3A4, Western blot
T1 construct: expressed in transfected cells; host or cells: HEK293 Flp-In host cell line (Invitrogen/ThermoFisher Flp-In T-REx system)
Description: Specifically, these assays evaluated the potential of the 3 different CGRP receptor antagonists to form reactive metabolites that promote the stabilization of Nrf2 or covalently bind to CYP3A4, triggering its subsequent time-dependent degradation, as assessed by Western blot. To seek further confirmatory evidence for reactive metabolite formation, a HEK293 cell line expressing doxycycline inducible CYP3A4 P450 enzyme expression construct with a Flag tag epitope fused to the C-terminus was constructed and cloned using the Invitrogen/ThermoFisher Scientific Flp-In T-TEx system and the HEK293 Flp-In host cell line per standard protocol. […] Alternatively, this simplified single CYP test model might not allow for Nrf2 stabilization if sufficient quantities of the chemically reactive metabolite cannot be generated by CYP3A4, or cannot escape the catalytic site of CYP3A4, which would appear on Western blot using anti-Flag antibody as time-dependent CYP3A4 degradation.

MRP3 = molecular target: T2, MRP3 (Homo sapiens, UniProt O15438); assay: MRP3 vesicular transport inhibition assay; format: biochemical; conditions: for inhibition of MRP3-mediated probe substrate transport: vesicular transport inhibition assay
T2 construct: Solvo Biotechnology (Szeged, Hungary), contract laboratory that ran the assay
Experimental: (§1) To assess the functional impact of ubrogepant on the human ABC efflux transporters BSEP, MRP3, and MRP4, in vitro vesicular transport inhibition assays were conducted by Solvo Biotechnology (Szeged, Hungary). The ability of ubrogepant to inhibit the BSEP-mediated transport (and accumulation) of a probe substrate was tested at concentrations ranging from 0.04 – 30 μM, where the latter defined the upper limit of compound solubility in the BSEP assay buffer. For the MRP3 and MRP4 vesicle-based transporter assessments, ubrogepant concentrations of 0.1 to 70 μM were used. To assess the functional impact of ubrogepant on the human SLC (uptake) transporter NTCP, in vitro experiments were performed using HEK293 cells stably expressing NTCP. The ability of ubrogepant to inhibit NTCP-mediated uptake (and accumulation) of taurocholate was tested at concentrations ranging from 0.04 – 30 μM.
(§2) To assess the functional impact of MK-3207 on the human ABC efflux transporters BSEP, MRP3 and MRP4, in vitro vesicular transport inhibition assays were conducted by Solvo Biotechnology (Szeged, Hungary) and overseen by DSSI. BSEP transport was assessed in the presence of 0.5-30 µM MK-3207; MRP3 and MRP4 transport was assessed in the presence of 0.11-80 µM MK-3207. The upper limits of these ranges were determined by compound solubility in each assay buffer. NTCP transporter inhibition was assessed in NTCP-expressing HEK293 cells in the presence of 0.03 – 25 µM MK-3207.
IC50 values for MK-3207 were calculated for each of the transporters; these values were used as inputs into DILIsym. It was assumed that inhibition type for MK-3207 for MRP3 and MRP4 was mixed with α= 5; this is a typical value for bile acid transporter inhibitors in the experience of the DSS team.

HepG2 cells = assay: Oxidative stress assay (ROS, DHE fluorescence); format: cell-based, human
Experimental: Three independent studies in triplicate were conducted on HepG2 cells, and two independent studies in triplicate were conducted on primary human hepatocytes.
To assess the potential for ubrogepant to induce oxidative stress, assays to measure formation of reactive oxygen species (ROS) were conducted by Cyprotex. HepG2 cells were cultured in triplicate with ubrogepant for 6 or 24 hours at concentrations ranging from 0.01 – 150 μM, and ROS formation was assayed by DHE fluorescence assay. HepG2 cells have reduced metabolic activity relative to primary human hepatocytes.^3,4 Three independent studies in triplicate were conducted on HepG2 cells.
To assess the potential for MK-3207 to induce oxidative stress, assays to measure formation of ROS were conducted by Cyprotex. HepG2 cells were cultured in triplicate with MK-3207 for 6 or 24 hours at concentrations ranging from 0.01 – 150 μM and ROS formation was assayed by DHE fluorescence assay. HepG2 cells have reduced metabolic activity relative to primary human hepatocytes.^3,4 Three independent studies in triplicate were conducted.

[2] = test system: mitochondrial electron transport chain (ETC); assay: MITOsym/DILIsym fit of OCR data (ETC inhibition parameters); parameters: species or system human; conditions: for DILIsym ETC inhibition constant: MITOsym value × scaling factor of 34.7
Experimental: MITOsym® parameters were then translated to DILIsym® parameters using a scaling factor calculated using classic exemplar compounds that perturb different pathways of mitochondrial respiration (e.g., rotenone for ETC inhibition, FCCP for uncoupling).
The parameter values for ubrogepant were determined by reproducing the cell count-corrected OCR data in MITOsym®, a mechanistic model of mitochondrial function in the in vitro setting. MITOsym parameters were then translated to DILIsym parameters using a scaling factor calculated using classic exemplar compounds that perturb different pathways of mitochondrial respiration (e.g., rotenone for ETC inhibition, FCCP for uncoupling).
Mitochondrial toxicity parameter values for MK-3207 were determined by reproducing the cell count-corrected OCR response to MK-3207 dosing in both MITOsym and DILIsym. The ETC inhibition coefficient from the MITOsym parameters was then translated to a DILIsym parameter using a scaling factor calculated using classic exemplar compounds that perturb different pathways of mitochondrial respiration (e.g., rotenone for ETC inhibition, FCCP for uncoupling), similar to ubrogepant. The maximum inhibition potency from the DILIsym fit was combined with this value in the final parameter set.

[3] = Compound solubility limit in transporter assay buffer; format: physicochemical; conditions: read-out: upper limit of compound solubility
Experimental: as §1, §2

[4] = curve fitting assuming maximum inhibition at higher concentrations is 100%, read-out: MRP3 estimated lowest possible IC50
[5] = MRP3 and MRP4 assay buffer, aqueous buffer

T1 sequence (P08684 whole entry): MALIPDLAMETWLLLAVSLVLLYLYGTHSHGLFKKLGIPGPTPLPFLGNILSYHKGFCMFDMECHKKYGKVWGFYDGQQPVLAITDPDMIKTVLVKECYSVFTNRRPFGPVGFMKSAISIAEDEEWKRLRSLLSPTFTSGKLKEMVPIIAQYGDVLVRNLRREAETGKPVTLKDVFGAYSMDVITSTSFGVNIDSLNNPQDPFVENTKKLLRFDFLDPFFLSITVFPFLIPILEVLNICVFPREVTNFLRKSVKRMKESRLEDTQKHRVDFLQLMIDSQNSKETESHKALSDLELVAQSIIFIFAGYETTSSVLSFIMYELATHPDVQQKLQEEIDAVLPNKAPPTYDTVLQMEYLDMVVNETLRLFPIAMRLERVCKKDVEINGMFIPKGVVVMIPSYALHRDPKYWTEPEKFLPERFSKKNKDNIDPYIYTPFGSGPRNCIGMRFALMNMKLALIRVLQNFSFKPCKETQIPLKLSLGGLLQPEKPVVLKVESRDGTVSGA
T2 sequence (O15438 whole entry): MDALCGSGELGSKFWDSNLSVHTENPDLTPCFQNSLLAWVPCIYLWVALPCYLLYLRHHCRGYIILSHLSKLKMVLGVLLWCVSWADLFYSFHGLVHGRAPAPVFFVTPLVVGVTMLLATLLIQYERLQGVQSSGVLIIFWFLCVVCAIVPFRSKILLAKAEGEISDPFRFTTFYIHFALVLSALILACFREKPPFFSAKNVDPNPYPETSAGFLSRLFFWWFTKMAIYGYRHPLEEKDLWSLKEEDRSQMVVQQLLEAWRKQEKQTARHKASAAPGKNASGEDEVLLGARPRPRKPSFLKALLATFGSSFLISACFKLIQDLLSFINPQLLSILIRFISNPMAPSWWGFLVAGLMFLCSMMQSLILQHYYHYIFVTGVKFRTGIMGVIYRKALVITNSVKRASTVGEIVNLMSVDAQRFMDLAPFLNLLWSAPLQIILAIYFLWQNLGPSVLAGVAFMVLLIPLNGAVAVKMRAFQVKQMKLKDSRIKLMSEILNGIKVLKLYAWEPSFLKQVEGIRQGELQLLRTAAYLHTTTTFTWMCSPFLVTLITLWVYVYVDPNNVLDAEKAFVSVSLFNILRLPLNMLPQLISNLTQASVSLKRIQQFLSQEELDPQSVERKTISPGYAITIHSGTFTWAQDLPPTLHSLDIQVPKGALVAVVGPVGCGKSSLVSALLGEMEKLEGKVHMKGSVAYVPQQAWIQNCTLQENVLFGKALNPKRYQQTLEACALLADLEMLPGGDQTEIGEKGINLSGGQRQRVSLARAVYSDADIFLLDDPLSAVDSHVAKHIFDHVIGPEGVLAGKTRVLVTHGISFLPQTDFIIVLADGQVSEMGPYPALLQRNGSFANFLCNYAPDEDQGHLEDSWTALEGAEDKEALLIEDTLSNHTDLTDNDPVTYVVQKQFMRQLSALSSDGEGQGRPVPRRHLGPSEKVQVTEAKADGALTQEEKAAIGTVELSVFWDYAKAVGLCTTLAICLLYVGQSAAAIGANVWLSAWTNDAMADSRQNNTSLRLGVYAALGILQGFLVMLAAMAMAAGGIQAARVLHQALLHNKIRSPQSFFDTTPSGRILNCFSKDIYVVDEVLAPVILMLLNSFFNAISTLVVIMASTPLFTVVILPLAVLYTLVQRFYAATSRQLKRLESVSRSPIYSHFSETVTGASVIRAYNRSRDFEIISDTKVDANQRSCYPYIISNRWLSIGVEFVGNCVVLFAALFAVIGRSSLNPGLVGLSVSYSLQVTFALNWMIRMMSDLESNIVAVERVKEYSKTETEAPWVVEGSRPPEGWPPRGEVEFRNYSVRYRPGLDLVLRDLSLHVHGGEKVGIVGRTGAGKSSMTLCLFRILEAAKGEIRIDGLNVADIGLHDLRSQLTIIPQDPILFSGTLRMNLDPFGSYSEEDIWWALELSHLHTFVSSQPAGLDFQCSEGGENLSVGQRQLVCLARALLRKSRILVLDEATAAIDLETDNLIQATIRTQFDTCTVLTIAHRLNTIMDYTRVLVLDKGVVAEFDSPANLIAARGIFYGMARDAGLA

| SMILES | Pivotal conventional nonclinical toxicology study liver findings (monkeys) | exposure margin (monkeys) [×] | maximum liver safe daily dose predicted from BA-LRA [1] [mg] | upregulation of pathways associated with electrophilic and proteasomal stress [1] | formation of reactive metabolites that covalently bind to CYP3A4 and result in its degradation (CYP3A4) | pIC50 (MRP3; [4]) | inhibition of MRP3-mediated probe substrate transport (MRP3) | induction of oxidative stress (ROS formation) (HepG2 cells; HepG2, 24-hour incubation) | DILIsym ETC inhibition constant [2] [mol/mL] | induction of oxidative stress (ROS formation) (HepG2 cells; HepG2, 6-hour incubation) | solubility [3, 5] [µM] | further results |
| --- | --- | --- | --- | --- | --- | --- | --- | --- | --- | --- | --- | --- |
| O=C(N[C@@H]1CC[C@@H](c2cccc(F)c2F)CN(CC(F)(F)F)C1=O)N1CCC(n2c(=O)[nH]c3ncccc32)CC1 [Telcagepant] | no liver safety signal | 7 | < 600 | upregulated pathways associated with electrophilic and proteasomal stress | did not | ≤ 4.78 | inhibited | modest induction of oxidative stress | 1.74e-05 | – | – | BA-LRA score ([1]; rat liver, 400 mg/kg/day × 4 days, evidence of transcriptional suppression): 0.30; inhibition at 20 µM (MRP3; human, membrane vesicles with MRP3 (vesicular transport assay), read-out: maximum inhibition at the highest concentration tested, MRP3): < 50%; MITOsym ETC inhibition constant ([2]; fit of 1 hour HepG2 OCR data): 0.5 mM; solubility ([3]; aqueous buffer, BSEP, MRP3, MRP4 vesicular transport assays): 20 µM (≈ 11.3 µg/mL) |
| O=C(CN1C(=O)C2(CCCC2)NC[C@H]1c1cc(F)cc(F)c1)Nc1ccc2c(c1)C[C@@]1(C2)C(=O)Nc2ncccc21 [MK-3207] | no liver safety signal | 4 | 300 | upregulated pathways associated with electrophilic and proteasomal stress | formed reactive metabolites that covalently bind to CYP3A4 and result in its degradation | – | inhibited | modest induction of oxidative stress | – | not evident | 80 (≈ 44.6 µg/mL) | BA-LRA score ([1]; rat liver, 600 mg/kg/day × 4 days): 0.34; pIC50 (MRP3; used as basolateral transporter inhibition constant, read-out: MRP3 calculated IC50): 4.30; maximal inhibition value (ETC) ([2]; DILIsym fit of HepG2 OCR data): 0.35; ETC inhibition coefficient ([2]; MITOsym constant translated into DILIsym, 1-hour and 24-hour HepG2 OCR data): 0.347 µM; solubility ([3]; BSEP assay buffer): 30 µM (≈ 16.7 µg/mL) |
| C[C@@H]1[C@H](c2ccccc2)C[C@H](NC(=O)c2cnc3c(c2)C[C@@]2(C3)C(=O)Nc3ncccc32)C(=O)N1CC(F)(F)F [Ubrogepant] | no liver safety signal | 163 | – | did not | did not | ≤ 4.07 | inhibited | modest induction of oxidative stress | 4.72e-07 | not evident | 70 (≈ 38.5 µg/mL) | BA-LRA response ([1]; rat liver, 7 days with 750 mg/kg): No BA-LRA response; inhibition at 70 µM (MRP3; human, membrane vesicles with MRP3 (vesicular transport assay), 70 µM (solubility limit), read-out: maximum inhibition at the highest concentration tested, MRP3): < 50%; MITOsym ETC inhibition constant ([2]; fit of 24-hour HepG2 OCR data): 0.0136 mM; solubility ([3]; BSEP assay buffer, aqueous buffer): 30 µM (≈ 16.5 µg/mL) |
